Measured values reported in patent US20170105960A1, “Prodrugs of Succinic Acid for Increasing ATP Production” (NEUROVIVE PHARMACEUTICAL AB, priority 2014, published 2017).
“Also recorded” adds a separate entry of the source.

Assays:
[1] = tested on: intact cells; assay: Screening assay 2: enhancement and inhibition of mitochondrial energy producing function in intact cells (FCCP uncoupled); format: cell-based, human; parameters: key to Convergent (FCCP): The response in each parameter is graded either +, ++ or +++ in increasing order of potency; The response in each parameter is graded either +, ++ or +++ in increasing order of potency; The response in each parameter is graded either +, ++ or +++ in increasing order of potency; (+): Brackets [( )] indicate an intermediate effect, i.e. (+++) is between ++ and +++; conditions: for Convergent (FCCP): increase in mitochondrial oxygen consumption, screening assay 2, uncoupled conditions; for Toxicity: lowest concentration during compound titration at which a decrease in oxygen consumption is seen, screening assay 2
Description: (§1) Measurement of mitochondrial respiration is performed in a high-resolution oxygraph (Oxygraph—2k, Oroboros Instruments, Innsbruck, Austria) at a constant temperature of 37° C. Isolated human platelets, white blood cells, fibroblasts, human heart muscle fibers or other cell types containing live mitochondria are suspended in a 2 mL glass chamber at a concentration sufficient to yield oxygen consumption in the medium of ≧10 pmol O2 s^−1 mL^−1.
In the second protocol the same buffer is used as described above. After basal respiration is established, the mitochondrial uncoupler FCCP is added at a concentration of 2 nM to increase metabolic demand.

[2] = tested on: cells with inhibited respiratory complex I; assay: Screening assay 1: enhancement of mitochondrial energy producing function in cells with inhibited respiratory complex I; format: cell-based, human; parameters: key: The response in each parameter is graded either +, ++ or +++ in increasing order of potency; The response in each parameter is graded either +, ++ or +++ in increasing order of potency; The response in each parameter is graded either +, ++ or +++ in increasing order of potency; (+): Brackets [( )] indicate an intermediate effect, i.e. (+++) is between ++ and +++; conditions: increase in mitochondrial oxygen consumption in cells with inhibited complex I
Description: as §1
Cells are placed in a buffer containing 110 mM sucrose, HEPES 20 mM, taurine 20 mM, K-lactobionate 60 mM, MgCl2 3 mM, KH2PO4 10 mM, EGTA 0.5 mM, BSA 1 g/l, pH 7.1. […] Compounds dissolved in DMSO are titrated in a range of 10 μM to 10 mM final concentration. Subsequently, cell membranes are permeabilised with digitonin (1 mg/1*10^6 plt) to allow entry of extracellularly released energy substrate or cell impermeable energy substrates. After stabilized respiration, Succinate 10 mM is added as a reference to enable respiration downstream of complex I. After the respiration stabilized the experiment is terminated by addition of Antimycin at final concentration 1 μg/mL and any residual non-mitochondrial oxygen consumption is measured. An increase in respiration rate in the described protocol is tightly coupled to ATP synthesis by oxidative phosphorylation unless cells are uncoupled (i.e. proton leak without production of ATP). […]

[3] = tested on: Intact human blood cells with inhibited complex I; assay: Screening assay 4: enhancement of mitochondrial energy producing function in cells with inhibited respiratory complex I in human plasma; format: cell-based; parameters: key: The response in each parameter is graded either +, ++ or +++ in increasing order of potency; The response in each parameter is graded either +, ++ or +++ in increasing order of potency; The response in each parameter is graded either +, ++ or +++ in increasing order of potency; (+): Brackets [( )] indicate an intermediate effect, i.e. (+++) is between ++ and +++; conditions: increase in mitochondrial oxygen consumption
Description: as §1
Intact human blood cells are incubated in plasma from the same donor. […] Compounds dissolved in DMSO are titrated in a range of 10 μM to 10 mM final concentration. The experiment is terminated by addition of Antimycin at final concentration 1 μg/mL and any residual non-mitochondrial oxygen consumption is measured.

[4] = tested on: intact cells; assay: Screening assay 3: assay to assess uncoupling in intact cells (high-resolution respirometry); format: cell-based, human; parameters: key: The response in each parameter is graded either +, ++ or +++ in increasing order of potency; The response in each parameter is graded either +, ++ or +++ in increasing order of potency; The response in each parameter is graded either +, ++ or +++ in increasing order of potency; (+): Brackets [( )] indicate an intermediate effect, i.e. (+++) is between ++ and +++; conditions: for Convergent (Routine): increase in mitochondrial oxygen consumption induced by the compound, screening assay 3, 1 mM compound; for Uncoupling: level of oxygen consumption after addition of oligomycin, screening assay 3
Description: In the third protocol, the same buffer as described above is used. […] Subsequently, the ATP-synthase-inhibitor Oligomycin is added. A reduction in respiration is a measure of how much of the oxygen consumption that is coupled to ATP synthesis. No, or only a slight, reduction indicate that the compound is inducing a proton leak over the inner mitochondrial membrane. The uncoupler FCCP is then titrated to induce maximum uncoupled respiration. […] The experiment is terminated by the addition of 1 μg/mL of the complex III inhibitor Antimycin to measure non-mitochondrial oxygen consumption.

[5] = tested on: intact cells; assay: Assays exemplified for enhancement of mitochondrial energy producing function (not specified which); format: cell-based, human
Description: An increase in respiration rate in the described protocol is tightly coupled to ATP synthesis by oxidative phosphorylation unless cells are uncoupled (i.e. proton leak without production of ATP). Uncoupling is tested for by addition of the ATP synthase inhibitor oligomycin (1-2 μg mL^−1) in a protocol 3 where the extent of uncoupling corresponds to the respiratory rate following oligomycin addition. In the second protocol the same buffer is used as described above. […] In the third protocol, the same buffer as described above is used. […] Subsequently, the ATP-synthase-inhibitor Oligomycin is added. A reduction in respiration is a measure of how much of the oxygen consumption that is coupled to ATP synthesis. No, or only a slight, reduction indicate that the compound is inducing a proton leak over the inner mitochondrial membrane. The uncoupler FCCP is then titrated to induce maximum uncoupled respiration. […] The experiment is terminated by the addition of 1 μg/mL of the complex III inhibitor Antimycin to measure non-mitochondrial oxygen consumption. Intact human blood cells are incubated in plasma from the same donor. […] The experiment is terminated by addition of Antimycin at final concentration 1 μg/mL and any residual non-mitochondrial oxygen consumption is measured.

[6] = tested on: intact human platelets; assay: Intervention on rotenone- or metformin-induced lactate production with cell-permeable succinate prodrugs; format: cell-based; conditions: for effect on metformin-induced lactate production: 10 mM metformin, consecutive additions of 250 μM each 30 minutes; for effect on rotenone-induced lactate production: rotenone 2 μM, repeated additions of 250 μM each 30 minutes
Description: (§2) Lactate levels are determined every 2 h using the Lactate Pro™ 2 blood lactate test meter (Arkray, Alere AB, Lidingö, Sweden) or similar types of measurements. Incubation is performed at 37° C. pH is measured at start, after 4 and after 8 h (or more frequently) of incubation using a Standard pH Meter, e.g. PHM210 (Radiometer, Copenhagen, Denmark). Drug candidates are added to the assay from start or following 30-60 min at concentrations within the range 10 μM-5 mM. […] In order to evaluate the specificity of the drug candidate, it is also tested in combination with a down-stream inhibitor of respiration such as the complex III inhibitor Antimycin at 1 μg/mL, which should abolish the effect of the drug candidate and restore the production of lactate. The use of antimycin is therefore also a control for undue effects of drug candidates on the lactate producing ability of the cells used in the assay.
Lactate levels were measured in intervals of 30 min with the onset of the experiment.

[7] = tested on: intact PBMCs; assay: Lactate release of intact PBMCs; format: cell-based, human; conditions: 10 mM metformin, data not shown
[8] = tested on: intact human platelets; assay: Mitochondrial respiration in intact human platelets (respirometry); format: cell-based; conditions: for routine respiration change after 60 min: compared to first measurement after addition
Description: (§3) Lactate production of intact human platelets was determined in PBS containing 10 mM glucose.
Routine respiration was followed for 60 min at 37° C. before the ATP-synthase inhibitor oligomycin (1 μg mL^−1) was added to assess LEAK respiration. Maximal uncoupled respiratory electron transport system capacity supported by endogenous substrates (ETS) was reached by titration of FCCP.

[9] = tested on: permeabilized human peripheral blood mononuclear cells; assay: Mitochondrial respiration in permeabilized human PBMCs (respirometry); format: cell-based; conditions: PBMC, read-out: IC50 (OXPHOSCI respiration)
Description: Real-time respirometric measurements were performed using high-resolution oxygraphs (Oxygraph-2k, Oroboros Instruments, Innsbruck, Austria). The experimental conditions during the measurements were the following: 37° C., 2 mL active chamber volume and 750 rpm stirrer speed. […] Settings, daily calibration and instrumental background corrections were conducted according to the manufacturer's instructions. […] All measurements were performed at a platelet concentration of 200×10^6 cells per mL or a PBMC concentration of 5×10^6 cells per mL. […] Maximal uncoupled respiratory electron transport system capacity supported by convergent input through complex I and […] ) was evaluated by subsequent titration with the protonophore carbonyl-cyanide p-(trifluoromethoxy) phenylhydrazone (FCCP). […] The complex III inhibitor antimycin (1 μg mL^-1) was then given to reveal residual oxygen consumption (ROX). […] Complex IV activity was calculated by subtracting the sodium azide value from the TMPD value. With exception of complex IV activity, all respiratory states were measured at steady-state and corrected for ROX. Complex IV activity was measured after ROX determination and not at steady-state.

[10] = tested on: permeabilized human platelets
Description: as §3
Subsequently the FADH2-linked substrate succinate (10 mM) was given to determine convergent complex I- and II-dependent OXPHOS capacity (OXPHOSCI+II). […] Finally, the artificial complex IV substrate N,N,N′,N′-tetramethyl-p-phenylenediamine dihydrochloride (TMPD, 0.5 mM) was added and the complex IV inhibitor sodium azide (10 mM) was given to measure complex IV activity and chemical background, respectively.

[11] = tested on: intact human platelets; assay: Lactate production and pH of intact human platelets; format: cell-based; conditions: metformin 1 and 10 mM, phenformin 0.5 mM, rotenone 2 μM
Description: as §2
Incubation was performed at 37° C. at a stirrer speed of 750 rpm, and pH was measured at start, after 4 and after 8 h of incubation (n=4) using a PHM210 Standard pH Meter (Radiometer, Copenhagen, Denmark).

[12] = 10 mM metformin plus prodrug, 250 μM each 30 minutes

Q: With `CC(=O)OC(CCCOC(=O)CCC(=O)O)OC(=O)CCC(=O)O` (stereo not shown) [01-134] as the compound, how does the “Convergent (FCCP)” value [1] read?
A: Its value is “(+)”.

Q: And the Toxicity [1]?
A: Its Toxicity is 10 mM.

Q: What about the CII [2] of the same compound?
A: Its CII is “(+)”.

Q: And the “CII (plasma)” value [3]?
A: The value was “(+)”.

Q: And the “Convergent (Routine)” value [4]?
A: Its value is “++”.

Q: What about the Uncoupling [4] of the same compound?
A: The Uncoupling was “(+)”.

Q: For `CC(=O)OC(CCCN1C(=O)c2ccccc2C1=O)OC(=O)CCC(=O)O` (stereo not shown) [01-150, 4-(1-acetoxy-4-(1,3-dioxoisoindolin-2-yl)butoxy)-4-oxobutanoic acid], which “Convergent (FCCP)” value [1] is on record?
A: The value was “+”.

Q: What about the Toxicity [1] of the same compound?
A: Its Toxicity is 2 mM.

Q: And the CII [2]?
A: The CII was “++”.

Q: What about the “CII (plasma)” value [3] of the same compound?
A: Its value is “(+)”.

Q: What about the “Convergent (Routine)” value [4] of the same compound?
A: The value was “+++”.

Q: What about the Uncoupling [4] of the same compound?
A: Its Uncoupling is “(+)”.

Q: `CCOC(=O)CCC(=O)OCC` [Diethyl succinate] was tested. Which “activity in the assays exemplified” value [5] did it give?
A: Its value is “inactive”.

Q: What does the source list for `CC(=O)OCOC(=O)CCC(=O)OCOC(C)=O` [NV118]?
A: rate of lactate production [6, 12]: 0.43 mmol lactate (200·10^9 trc·h)^−1; effect on metformin-induced lactate production [6]: significantly decreased; effect on rotenone-induced lactate production [6]: attenuated

Q: Which results are given for `CC(=O)OC(C)OC(=O)CCC(=O)OC(C)OC(C)=O` (stereo not shown) [NV189]?
A: rate of lactate production [6, 12]: 0.55 mmol lactate (200·10^9 trc·h)^−1; effect on metformin-induced lactate production [6]: significantly decreased; rate of lactate production ([6]; rotenone 2 μM plus antimycin 1 μg/mL plus prodrug): 0.89 mmol lactate (200·10^6trc·h)^−1; effect on rotenone-induced lactate production [6]: attenuated; also recorded: brought back to normal

Q: `CC(=O)OCOC(=O)CCC(=O)OC(C)OC(C)=O` (stereo not shown) [NV241] was tested. Which “rate of lactate production” value [6, 12] did it give?
A: The value was 0.43 mmol lactate (200·10^9 trc·h)^−1.

Q: And the “effect on metformin-induced lactate production” value [6]?
A: Its value is “significantly decreased”.

Q: What about the “effect on rotenone-induced lactate production” value [6] of the same compound?
A: Its value is “attenuated”.

Q: With `COC(=O)CCC(=O)OC` [dimethyl succinate] as the compound, how does the “activity in the assays exemplified” value [5] read?
A: The value was “inactive”.

Q: `CN(C)C(=N)N=C(N)N` [metformin] was tested. Which lactate release [7] did it give?
A: The lactate release was “increased lactate release”.

Q: And the “routine respiration change after 60 min” value ([8]; 1 mM)?
A: The value was −17.27%.

Q: And the “routine respiration reduction after whole blood incubation” value ([8]; 1 mM, whole blood incubated over 18 h before platelet isolation)?
A: Its value is 30.49%.

Q: What about the “routine respiration change after 60 min” value ([8]; 10 mM) of the same compound?
A: Its value is −28.61%.

Q: And the “routine respiration change after 15 min compared to control” value ([8]; 100 mM, 15 min of exposure)?
A: The value was −39.77%.

Q: And the “routine respiration change after 60 min” value ([8]; 100 mM)?
A: The value was −81.78%.

Q: What about the IC50 [9] of the same compound?
A: The IC50 was 450 µM.

Q: Which “activity in the assays exemplified” value [5] does the source give for `COC(=O)CCC(=O)O` [monomethyl succinate] here?
A: The value was “inactive”.

Q: How did the “ETSCII capacity and complex IV activity” value ([10]; compared to controls) turn out when `[H]/N=C(/N)N/C(=N/[H])NCCc1ccccc1` [phenformin] was run?
A: Its value is “not ETSCII or respiration specific to complex IV”.

Q: What about the “fold more potent inhibition of OXPHOSCI than metformin” value ([10]; phenformin versus metformin) of the same compound?
A: Its value is 20 fold.

Q: And the IC50 ([10]; read-out: IC50 (OXPHOSCI respiration), complex I substrates)?
A: Its IC50 is 58 µM.

Q: What about the “lactate production over 8 h compared to control” value [11] of the same compound?
A: Its value is “significantly more lactate”.

Q: `O=C(O)CCC(=O)O` [succinate, reference compound] was tested. Which “effect on metformin-induced lactate production” value [6] did it give?
A: The value was “did not reduce the metformin-induced production of lactate; also recorded: did not change this”.
